{
  "source": "paper PMC12931196",
  "about": "“Vm–MSI: a Vancomycin–Antimicrobial Peptide Conjugate Combating Resistant Bacteria and Broadening the Antimicrobial Spectrum” (Advanced Science, 2025)",
  "note": "Where two headings read alike, the source gives them in different places. Ends that are not written are not given here.",
  "data": [
    {"molecule": "CC(C)C[C@H](NC(=O)[C@H](Cc1ccc(O)cc1)NC(=O)[C@H](Cc1c[nH]cn1)NC(=O)[C@@H](NC(=O)[C@H](CC(C)C)NC(=O)[C@H](C)NC(=O)[C@H](C)NC(=O)[C@H](CCCCN)NC(=O)CNC(=O)[C@@H](NC(=O)[C@H](Cc1c[nH]cn1)NC(=O)[C@H](CCCCN)NC(=O)CNC(=O)[C@@H](NC(=O)[C@H](Cc1c[nH]cn1)NC(=O)[C@H](C)NC(=O)[C@H](C)NC(=O)[C@H](CCCCN)NC(=O)[C@H](CCCCN)NC(=O)[C@H](Cc1ccccc1)NC(=O)[C@H](Cc1ccccc1)NC(=O)[C@H](CO)NC(=O)CNC(=O)[C@H](Cc1c[nH]c2ccccc12)NC(=O)CNC(=O)[C@@H](N)CSC1CC(=O)N(CC2CCC(C(=O)N(C)[C@H](CC(C)C)C(=O)N[C@H]3C(=O)N[C@@H](CC(N)=O)C(=O)N[C@H]4C(=O)N[C@H]5C(=O)N[C@H](C(=O)N[C@H](C(=O)O)c6cc(O)cc(O)c6-c6cc5ccc6O)[C@H](O)c5ccc(c(Cl)c5)Oc5cc4cc(c5O[C@@H]4O[C@H](CO)[C@@H](O)[C@H](O)[C@H]4O[C@H]4C[C@](C)(N)[C@H](O)[C@H](C)O4)Oc4ccc(cc4Cl)[C@H]3O)CC2)C1=O)C(C)C)C(C)C)[C@@H](C)O)C(N)=O", "note": "(stereo partly drawn) [Vm-Ple]", "values": [
      {"measurement": "MIC", "setting": "S. aureus CMCC26003; S. aureus CMCC26003, MH broth, 37 °C, 18 h, OD600", "result": "0.78(0.17) µg mL^−1"},
      {"measurement": "MIC", "setting": "S. aureus ATCC29213; S. aureus ATCC29213, MH broth, 37 °C, 18 h, OD600", "result": "4.69(1.05) µg mL^−1"},
      {"measurement": "MIC", "setting": "MRSA ATCC43300; MRSA ATCC43300, MH broth, 37 °C, 18 h, OD600", "result": "4.69(1.05) µg mL^−1"},
      {"measurement": "MIC", "setting": "S. aureus 15772; S. aureus 15772, MH broth, 37 °C, 18 h, OD600", "result": "2.34(0.52) µg mL^−1"},
      {"measurement": "MIC", "setting": "S. aureus 15192; S. aureus 15192, MH broth, 37 °C, 18 h, OD600", "result": "2.34(0.52) µg mL^−1"},
      {"measurement": "MIC", "setting": "VRSA 11; VRSA 11, MH broth, 37 °C, 18 h, OD600", "result": "9.38(2.10) µg mL^−1"},
      {"measurement": "MIC", "setting": "VRSA 52; VRSA 52, MH broth, 37 °C, 18 h, OD600", "result": "9.38(2.10) µg mL^−1"},
      {"measurement": "MIC", "setting": "E. faecalis ATCC29212; E. faecalis ATCC29212, MH broth, 37 °C, 18 h, OD600", "result": "18.75(4.19) µg mL^−1"},
      {"measurement": "MIC", "setting": "E. coli ATCC25922; E. coli ATCC25922, MH broth, 37 °C, 18 h, OD600", "result": "4.69(1.05) µg mL^−1"},
      {"measurement": "MIC", "setting": "A. baumannii ATCC19606; A. baumannii ATCC19606, MH broth, 37 °C, 18 h, OD600", "result": "2.34(0.52) µg mL^−1"},
      {"measurement": "MIC", "setting": "K. pneumoniae 9883; K. pneumoniae 9883, MH broth, 37 °C, 18 h, OD600", "result": "37.5(8.37) µg mL^−1"},
      {"measurement": "MIC", "setting": "P. aeruginosa ATCC27853; P. aeruginosa ATCC27853, MH broth, 37 °C, 18 h, OD600", "result": ">100(>22.33) µg mL^−1"},
      {"measurement": "MIC", "setting": "S. typhimurium ATCC14028; S. typhimurium ATCC14028, MH broth, 37 °C, 18 h, OD600", "result": "75(16.75) µg mL^−1"}
    ]},
    {"molecule": "GWGSFFKKAAHVGKHVGKAALTHYL-NH2 [Pleurecidin]", "values": [
      {"measurement": "MIC", "setting": "S. aureus CMCC26003; CMCC26003, 18 h", "result": "1.17(0.43) µg mL^−1"},
      {"measurement": "MIC", "setting": "S. aureus ATCC29213; ATCC29213, 18 h", "result": "9.38(3.46) µg mL^−1"},
      {"measurement": "MIC", "setting": "MRSA ATCC43300; ATCC43300, 18 h", "result": "2.34(0.86) µg mL^−1"},
      {"measurement": "MIC", "setting": "S. aureus 15772; 15772, 18 h", "result": "9.38(3.46) µg mL^−1"},
      {"measurement": "MIC", "setting": "S. aureus 15192; 15192, 18 h", "result": "9.38(3.46) µg mL^−1"},
      {"measurement": "MIC", "setting": "VRSA 11; 11, 18 h", "result": "4.69(1.73) µg mL^−1"},
      {"measurement": "MIC", "setting": "VRSA 52; 52, 18 h", "result": "9.38(3.46) µg mL^−1"},
      {"measurement": "MIC", "setting": "E. faecalis ATCC29212; ATCC29212, 18 h", "result": "4.69(1.73) µg mL^−1"},
      {"measurement": "MIC", "setting": "E. coli ATCC25922; ATCC25922, 18 h", "result": "2.34(0.86) µg mL^−1"},
      {"measurement": "MIC", "setting": "A. baumannii ATCC19606; ATCC19606, 18 h", "result": "9.38(3.46) µg mL^−1"},
      {"measurement": "MIC", "setting": "K. pneumoniae 9883; 9883, 18 h", "result": "4.69(1.73) µg mL^−1"},
      {"measurement": "MIC", "setting": "P. aeruginosa ATCC27853; ATCC27853, 18 h", "result": "9.38(3.46) µg mL^−1"},
      {"measurement": "MIC", "setting": "S. typhimurium ATCC14028; ATCC14028, 18 h", "result": "18.75(6.92) µg mL^−1"}
    ]},
    {"molecule": "RRIRPRPPRLPRPRPRP [Bac-7]", "values": [
      {"measurement": "MIC", "setting": "S. aureus CMCC26003; CMCC26003, 18 h", "result": "37.5(17.27) µg mL^−1"},
      {"measurement": "MIC", "setting": "S. aureus ATCC29213; ATCC29213, 18 h", "result": ">100(>46.0) µg mL^−1"},
      {"measurement": "MIC", "setting": "MRSA ATCC43300; ATCC43300, 18 h", "result": "9.38(4.32) µg mL^−1"},
      {"measurement": "MIC", "setting": "S. aureus 15772; 15772, 18 h", "result": "75(34.53) µg mL^−1"},
      {"measurement": "MIC", "setting": "S. aureus 15192; 15192, 18 h", "result": "75(34.53) µg mL^−1"},
      {"measurement": "MIC", "setting": "VRSA 11; 11, 18 h", "result": "75(34.53) µg mL^−1"},
      {"measurement": "MIC", "setting": "VRSA 52; 52, 18 h", "result": "75(34.53) µg mL^−1"},
      {"measurement": "MIC", "setting": "E. faecalis ATCC29212; ATCC29212, 18 h", "result": "18.75(8.63) µg mL^−1"},
      {"measurement": "MIC", "setting": "E. coli ATCC25922; ATCC25922, 18 h", "result": "18.75(8.63) µg mL^−1"},
      {"measurement": "MIC", "setting": "A. baumannii ATCC19606; ATCC19606, 18 h", "result": ">100(>46.0) µg mL^−1"},
      {"measurement": "MIC", "setting": "K. pneumoniae 9883; 9883, 18 h", "result": "9.38(4.32) µg mL^−1"},
      {"measurement": "MIC", "setting": "P. aeruginosa ATCC27853; ATCC27853, 18 h", "result": ">100(>46.0) µg mL^−1"},
      {"measurement": "MIC", "setting": "S. typhimurium ATCC14028; ATCC14028, 18 h", "result": "75(34.53) µg mL^−1"}
    ]}
  ]
}
